Test results as given in US20040171603A1, “Novel therapeutic targets for the treatment of mycobacterial infections and compounds useful therefor” (priority 2001, published 2004).
Read-outs that look alike come from different tables or passages of the source.

How the values were obtained:
[1] = test system: M. smegmatis expressing wildtype PknG in murine macrophage cell line RAW; type: cell-based, Mycobacterium smegmatis; conditions: FIG. 2
[2] = molecular target: T1, mycobacterial protein kinase G (PknG) (Mycobacterium tuberculosis, UniProt P9WI73); experiment: biochemical
T1 construct: GST; made in house; host or cells: E. coli BL21

[3] = read-out: IC50 value, inhibition of serine/threonine protein kinase G of M. tuberculosis
[4] = ATP near Km, read-out: Inhibition of PknG (IC50, [μM])
[5] = ranging from about 2 μM and more than 30 μM over the listed compounds, read-out: IC50 values, inhibition of PknG (span stated for the group)

T1 sequence (P9WI73 whole entry): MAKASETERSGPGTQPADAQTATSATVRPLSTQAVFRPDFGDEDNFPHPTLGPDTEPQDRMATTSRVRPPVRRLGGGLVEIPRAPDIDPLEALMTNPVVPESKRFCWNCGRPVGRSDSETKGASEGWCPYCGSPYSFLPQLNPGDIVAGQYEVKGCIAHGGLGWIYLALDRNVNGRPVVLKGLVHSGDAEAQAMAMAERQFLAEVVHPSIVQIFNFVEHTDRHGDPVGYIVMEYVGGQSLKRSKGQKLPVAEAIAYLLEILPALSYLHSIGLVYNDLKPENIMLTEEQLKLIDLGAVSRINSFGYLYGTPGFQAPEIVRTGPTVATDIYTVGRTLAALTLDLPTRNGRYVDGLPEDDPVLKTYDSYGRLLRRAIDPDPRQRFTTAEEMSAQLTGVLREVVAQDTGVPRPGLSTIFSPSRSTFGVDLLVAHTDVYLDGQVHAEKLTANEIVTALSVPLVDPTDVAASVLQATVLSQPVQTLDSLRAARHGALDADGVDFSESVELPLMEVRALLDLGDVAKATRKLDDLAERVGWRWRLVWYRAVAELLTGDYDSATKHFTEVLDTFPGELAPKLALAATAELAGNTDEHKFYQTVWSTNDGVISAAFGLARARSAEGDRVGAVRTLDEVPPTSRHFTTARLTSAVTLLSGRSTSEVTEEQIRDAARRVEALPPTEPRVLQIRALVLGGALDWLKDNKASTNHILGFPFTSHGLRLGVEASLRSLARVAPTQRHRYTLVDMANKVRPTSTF

Row | SMILES | resistance to macrophage degradation of wildtype PknG-expressing M. smegmatis ([1]; 1 μM or 10 μM) | clearance of PknG-expressing M. smegmatis in macrophages ([1]; 10 μM, 24 hours postinfection, RAW cells) | IC50 [2, 3] [µM] | IC50 [2, 4] [µM] | IC50 [2, 5] [µM]
1 | NC(=O)c1c(NC(=O)C2CC2)sc2c1CCCC2 [Compound 237, 2-(Cyclopropanecarbonyl-amino)-4,5,6,7-tetrahydro-benzo[b]thiophene-3-carboxylic acid amide] | overcomes the resistance to macrophage degradation | as efficient as observed with the mutant or vector control transformants | 0.2 |  | 
2 | NC(=O)c1c(NC(=O)Cc2ccc([N+](=O)[O-])cc2)sc2c1CCCC2 [Compound 238, 2-[2-(4-Nitrophenyl)-acetylamino]-4,5,6,7-tetrahydro-benzo[b]thiophene-3-carboxylic acid amide] |  |  |  | ~5 | ≥ 2
3 | CC1CCc2c(sc(NC(=O)Cn3cnc([N+](=O)[O-])n3)c2C(N)=O)C1 (centres unmarked) [Compound 239, 6-Methyl-2-[2-(3-nitro-[1,2,4]triazol-1-yl)-acetylamino]-4,5,6,7-tetrahydro-benzo[b]thiophene-3-carboxylic acid amide] |  |  |  | > 30 | ≥ 2
4 | O=C(Nc1sc2c(c1C(=O)NCCO)CCCC2)c1ccco1 [Compound 240, Furan-2-carboxylic acid [3-(2-hydroxy-ethylcarbamoyl)-4,5,6,7-tetrahydro-benzo[b]thiophen-2-yl]-amide] |  |  |  | 16 | ≥ 2
5 | CC(=O)Nc1sc2c(c1C(N)=O)CCCC2 [Compound 250, 2-Acetylamino-4,5,6,7-tetrahydrobenzo[b]thiophene-3-carboxylic acid amide] |  |  |  | > 30 | ≥ 2
6 | O=C(O)c1c(NC(=O)C2CC2)sc2c1CCCC2 [Compound 252, 2-(Cyclopropanecarbonyl-amino)-4,5,6,7-tetrahydro-benzo[b]thiophene-3-carboxylic acid] |  |  |  | ~19 | ≥ 2
7 | CC(C)C(=O)Nc1sc2c(c1C(N)=O)CCCC2 [Compound 255, 2-Isobutyrylamino-4,5,6,7-tetrahydrobenzo[b]thiophene-3-carboxylic acid amide] |  |  |  | ~3 | ≥ 2
8 | CCOC(=O)c1c(NC(=O)C(C)C)sc2c1CCCC2 [Compound 256, 2-Isobutyrylamino-4,5,6,7-tetrahydrobenzo[b]thiophene-3-carboxylic acid ethyl ester] |  |  |  | > 30 | ≥ 2
9 | NC(=O)c1c(NC(=O)C2CCC2)sc2c1CCCC2 [Compound 266, 2-(Cyclobutanecarbonyl-amino)-4,5,6,7-tetrahydrobenzo[b]thiophene-3-carboxylic acid amide] |  |  |  | ~3 | ≥ 2
10 | CCC(C)C(=O)Nc1sc2c(c1C(N)=O)CCCC2 (centres unmarked) [Compound 267, 2-(2-Methyl-butyrylamino)-4,5,6,7-tetrahydrobenzo[b]thiophene-3-carboxylic acid amide] |  |  |  | ~15 | ≥ 2
11 | CC1CCc2c(sc(NC(=O)C3CC3)c2C(N)=O)C1 (centres unmarked) [Compound 270, 2-(Cyclopropanecarbonyl-amino)-6-methyl-4,5,6,7-tetrahydrobenzo[b]thiophene-3-carboxylic acid amide] |  |  | 0.9 |  | 
12 | CC(=O)Nc1sc2c(c1C(N)=O)CCC(C)C2 (centres unmarked) [Compound 284, 2-Acetylamino-6-methyl-4,5,6,7-tetrahydrobenzo[b]thiophene-3-carboxylic acid amide] |  |  |  | ~12 | ≥ 2
13 | NC(=O)c1c(NC(=O)C2CC2)sc2c1CCSC2 [Compound 286, 2-(Cyclopropanecarbonyl-amino)-4,7-dihydro-5H-thieno[2,3-c]-thiopyran-3-carboxylic acid amide] |  |  |  | ~2 | ≥ 2
